Measurements reported in the NIST ThermoML archive (doi:10.1021/je700751a).
Numbers after ± are expanded uncertainties.

Test: osmotic coefficient (dimensionless); mn = molality of the nth substance listed, in mol/kg
Settings: Liquid, isopiestic method

Compound: O=C([O-])[C@H](O)[C@@H](O)C(=O)[O-].[K+].[K+] [dipotassium L-tartrate] + O
- osmotic coefficient (298.15 K, m1 = 0): 1 ± 0.001
- osmotic coefficient (298.15 K, m1 = 0.3635): 0.713 ± 0.014
- osmotic coefficient (298.15 K, m1 = 0.604): 0.683 ± 0.016
- osmotic coefficient (298.15 K, m1 = 0.7532): 0.675 ± 0.016
- osmotic coefficient (298.15 K, m1 = 1.285): 0.677 ± 0.016
- osmotic coefficient (298.15 K, m1 = 1.702): 0.691 ± 0.015
- osmotic coefficient (298.15 K, m1 = 1.861): 0.691 ± 0.015
- osmotic coefficient (298.15 K, m1 = 2.212): 0.704 ± 0.015
- osmotic coefficient (298.15 K, m1 = 2.379): 0.711 ± 0.014
- osmotic coefficient (298.15 K, m1 = 2.466): 0.705 ± 0.015
- osmotic coefficient (298.15 K, m1 = 2.837): 0.719 ± 0.014
- osmotic coefficient (298.15 K, m1 = 3.236): 0.728 ± 0.014
- osmotic coefficient (298.15 K, m1 = 4.168): 0.759 ± 0.012
- osmotic coefficient (298.15 K, m1 = 4.379): 0.77 ± 0.01
- osmotic coefficient (298.15 K, m1 = 4.631): 0.771 ± 0.011
- osmotic coefficient (298.15 K, m1 = 4.845): 0.775 ± 0.011
- osmotic coefficient (298.15 K, m1 = 6.72): 0.805 ± 0.01
- osmotic coefficient (298.15 K, m1 = 6.869): 0.804 ± 0.01
- osmotic coefficient (308.15 K, m1 = 0): 1 ± 0.001
- osmotic coefficient (308.15 K, m1 = 0.3282): 0.721 ± 0.014
- osmotic coefficient (308.15 K, m1 = 0.7152): 0.706 ± 0.015
- osmotic coefficient (308.15 K, m1 = 0.9198): 0.702 ± 0.015
- osmotic coefficient (308.15 K, m1 = 1.135): 0.692 ± 0.015
- osmotic coefficient (308.15 K, m1 = 1.327): 0.694 ± 0.015
- osmotic coefficient (308.15 K, m1 = 1.854): 0.705 ± 0.015
- osmotic coefficient (308.15 K, m1 = 2.215): 0.712 ± 0.014
- osmotic coefficient (308.15 K, m1 = 2.842): 0.725 ± 0.014
- osmotic coefficient (308.15 K, m1 = 3.585): 0.751 ± 0.012
- osmotic coefficient (308.15 K, m1 = 4.177): 0.764 ± 0.012
- osmotic coefficient (308.15 K, m1 = 5.047): 0.78 ± 0.011
- osmotic coefficient (308.15 K, m1 = 5.836): 0.793 ± 0.01
- osmotic coefficient (308.15 K, m1 = 6.435): 0.806 ± 0.01
- osmotic coefficient (318.15 K, m1 = 0): 1 ± 0.001
- osmotic coefficient (318.15 K, m1 = 0.2468): 0.741 ± 0.013
- osmotic coefficient (318.15 K, m1 = 0.3446): 0.745 ± 0.013
- osmotic coefficient (318.15 K, m1 = 0.5504): 0.721 ± 0.014
- osmotic coefficient (318.15 K, m1 = 0.6181): 0.712 ± 0.014
- osmotic coefficient (318.15 K, m1 = 0.9764): 0.707 ± 0.015
- osmotic coefficient (318.15 K, m1 = 1.276): 0.702 ± 0.015
- osmotic coefficient (318.15 K, m1 = 1.536): 0.712 ± 0.014
- osmotic coefficient (318.15 K, m1 = 1.995): 0.723 ± 0.014
- osmotic coefficient (318.15 K, m1 = 2.646): 0.737 ± 0.013
- osmotic coefficient (318.15 K, m1 = 2.934): 0.751 ± 0.012
- osmotic coefficient (318.15 K, m1 = 4.154): 0.777 ± 0.011
- osmotic coefficient (318.15 K, m1 = 4.813): 0.791 ± 0.01
- osmotic coefficient (318.15 K, m1 = 5.749): 0.804 ± 0.01
